Test system: MV-4-11 cells
Assay: Gene expression microarray analysis (Affymetrix PrimeView) and GSEA
Format: cell-based, human
Set-up: RFU PODN (11730768_x_at) / Fold change /veh PODN (11730768_x_at) / RFU LINC00158 (11744669_a_at) / Fold change /veh LINC00158 (11744669_a_at) / RFU DUSP10 (11751237_a_at) / Fold change /veh DUSP10 (11751237_a_at) / RFU ID3 (11757404_x_at) / Fold change /veh ID3 (11757404_x_at) / RFU PLEKHG5 (11737974_s_at) / Fold change /veh PLEKHG5 (11737974_s_at) / RFU LRRC4B (11730491_at) / Fold change /veh LRRC4B (11730491_at) / RFU GIMAP4 (11747438_a_at) / Fold change /veh GIMAP4 (11747438_a_at) / RFU KRT8 (11758183_x_at) / Fold change /veh KRT8 (11758183_x_at) / RFU CNN1 (11734310_a_at) / Fold change /veh CNN1 (11734310_a_at) / RFU VPS37D (11726825_at) / Fold change /veh VPS37D (11726825_at) / RFU C10orf10 (11716522_x_at) / Fold change /veh C10orf10 (11716522_x_at) / RFU KIR2DL2 /// KIR2DL4 /// KIR2DL5A /// KIR2DL5B /// KIR2DS1 /// KIR2DS2 /// KIR2DS3 /// KIR2DS4 /// KIR3DL3 /// KIR3DL3 /// KIR3DS1 (11738374_at) / Fold change /veh KIR2DL2 /// KIR2DL4 /// KIR2DL5A /// KIR2DL5B /// KIR2DS1 /// KIR2DS2 /// KIR2DS3 /// KIR2DS4 /// KIR3DL3 /// KIR3DL3 /// KIR3DS1 (11738374_at) / RFU C1QL1 (11718748_at) / Fold change /veh C1QL1 (11718748_at) / RFU TMPRSS4 (11747572_a_at) / Fold change /veh TMPRSS4 (11747572_a_at) / RFU HAMP (11756126_x_at) / Fold change /veh HAMP (11756126_x_at) / RFU RNFT2 (11725882_a_at) / Fold change /veh RNFT2 (11725882_a_at) / RFU NR4A2 (11747474_a_at) / Fold change /veh NR4A2 (11747474_a_at) / RFU ABCC12 (11746883_a_at) / Fold change /veh ABCC12 (11746883_a_at) / RFU TMEM136 (11760407_x_at) / Fold change /veh TMEM136 (11760407_x_at) / RFU CLDN22 /// WWC2 (11732394_at) / Fold change /veh CLDN22 /// WWC2 (11732394_at) / RFU HLA-DPB1 (11760878_x_at) / Fold change /veh HLA-DPB1 (11760878_x_at) / RFU SPINT1 (11716480_a_at) / Fold change /veh SPINT1 (11716480_a_at) / RFU GAP43 (11754022_s_at) / Fold change /veh GAP43 (11754022_s_at) / RFU A4GNT (11735810_at) / Fold change /veh A4GNT (11735810_at) / RFU PRB3 (11715151_x_at) / Fold change /veh PRB3 (11715151_x_at) / RFU TUBB4B (11761932_at) / Fold change /veh TUBB4B (11761932_at) / RFU CAPN14 (11732068_a_at) / Fold change /veh CAPN14 (11732068_a_at) / RFU TMCC2 (11721928_a_at) / Fold change /veh TMCC2 (11721928_a_at) / RFU IRGQ (11745062_a_at) / Fold change /veh IRGQ (11745062_a_at) / RFU FAM174B (11720279_a_at) / Fold change /veh FAM174B (11720279_a_at) / RFU TMPRSS4 (11748680_a_at) / Fold change /veh TMPRSS4 (11748680_a_at) / RFU FAM212B (11763350_a_at) / Fold change /veh FAM212B (11763350_a_at) / RFU PLEKHG5 (11743358_a_at) / Fold change /veh PLEKHG5 (11743358_a_at) / RFU ZSCAN30 (11745921_a_at) / Fold change /veh ZSCAN30 (11745921_a_at) / RFU CMKLR1 (11741424_a_at) / Fold change /veh CMKLR1 (11741424_a_at) / RFU LOC101060620 /// MAPK8IP1 (11723275_at) / Fold change /veh LOC101060620 /// MAPK8IP1 (11723275_at) / RFU SPTSSB (11747773_x_at) / Fold change /veh SPTSSB (11747773_x_at) / RFU PRSS12 (11739890_at) / Fold change /veh PRSS12 (11739890_at) / RFU BIN1 (11741810_x_at) / Fold change /veh BIN1 (11741810_x_at) / RFU WNT11 (11732464_a_at) / Fold change /veh WNT11 (11732464_a_at) / RFU C10orf10 (11716521_a_at) / Fold change /veh C10orf10 (11716521_a_at) / RFU C5orf56 (11738089_at) / Fold change /veh C5orf56 (11738089_at) / RFU CYB561 (11721691_x_at) / Fold change /veh CYB561 (11721691_x_at) / RFU ANKRD19P (11752326_a_at) / Fold change /veh ANKRD19P (11752326_a_at) / RFU OR2T12 /// OR2T33 /// OR2T8 (11738714_s_at) / Fold change /veh OR2T12 /// OR2T33 /// OR2T8 (11738714_s_at) / RFU VCAN (11748164_a_at) / Fold change /veh VCAN (11748164_a_at) / RFU JSRP1 (11732532_at) / Fold change /veh JSRP1 (11732532_at) / RFU KRTAP10-11 (11738290_x_at) / Fold change /veh KRTAP10-11 (11738290_x_at) / RFU MYO3A (11730013_a_at) / Fold change /veh MYO3A (11730013_a_at) / RFU EBF3 (11725865_a_at) / Fold change /veh EBF3 (11725865_a_at) / RFU CAMK2N1 (11719241_x_at) / Fold change /veh CAMK2N1 (11719241_x_at) / RFU C5orf56 (11738088_a_at) / Fold change /veh C5orf56 (11738088_a_at) / RFU OLFML3 (11715873_a_at) / Fold change /veh OLFML3 (11715873_a_at) / RFU LOC100653217 /// NTM (11731650_a_at) / Fold change /veh LOC100653217 /// NTM (11731650_a_at) / RFU MAPK11 (11762145_a_at) / Fold change /veh MAPK11 (11762145_a_at) / RFU FIZ1 (11724087_x_at) / Fold change /veh FIZ1 (11724087_x_at) / RFU OASL (11726364_x_at) / Fold change /veh OASL (11726364_x_at) / RFU SOX15 (11748057_x_at) / Fold change /veh SOX15 (11748057_x_at) / RFU CD79A (11719716_a_at) / Fold change /veh CD79A (11719716_a_at) / RFU HIST1H1D (11736915_at) / Fold change /veh HIST1H1D (11736915_at) / RFU CASKIN2 (11723855_a_at) / Fold change /veh CASKIN2 (11723855_a_at) / RFU LOC730098 (11760151_x_at) / Fold change /veh LOC730098 (11760151_x_at) / RFU OR4N2 (11742367_at) / Fold change /veh OR4N2 (11742367_at) / RFU PRRT2 (11749266_a_at) / Fold change /veh PRRT2 (11749266_a_at) / RFU SNX32 (11753110_a_at) / Fold change /veh SNX32 (11753110_a_at) / RFU CDHR5 (11726645_a_at) / Fold change /veh CDHR5 (11726645_a_at) / RFU RCAN1 (11760418_a_at) / Fold change /veh RCAN1 (11760418_a_at) / RFU FAM167A (11723789_a_at) / Fold change /veh FAM167A (11723789_a_at) / RFU FAM26E (11764081_at) / Fold change /veh FAM26E (11764081_at) / RFU ISYNA1 (11749810_s_at) / Fold change /veh ISYNA1 (11749810_s_at) / RFU ACY1 (11761880_at) / Fold change /veh ACY1 (11761880_at) / RFU 11764098_at / Fold change /veh 11764098_at / RFU SAMD14 (11745864_x_at) / Fold change /veh SAMD14 (11745864_x_at) / RFU NPB (11741838_a_at) / Fold change /veh NPB (11741838_a_at) / RFU TMPRSS6 (11731388_a_at) / Fold change /veh TMPRSS6 (11731388_a_at) / RFU KRTAP10-2 (11738614_at) / Fold change /veh KRTAP10-2 (11738614_at) / RFU ARHGAP8 /// PRR5-ARHGAP8 (11727945_x_at) / Fold change /veh ARHGAP8 /// PRR5-ARHGAP8 (11727945_x_at) / RFU KRTAP5-7 /// NADSYN1 (11734609_at) / Fold change /veh KRTAP5-7 /// NADSYN1 (11734609_at) / RFU RASL12 (11751679_a_at) / Fold change /veh RASL12 (11751679_a_at) / RFU CDKN2B (11736163_a_at) / Fold change /veh CDKN2B (11736163_a_at) / RFU PRF1 (11729649_at) / Fold change /veh PRF1 (11729649_at) / RFU, ZNF638 /// ZNF638-IT1 / Fold change vs veh, ZNF638 /// ZNF638-IT1 / RFU, PANK3 / Fold change vs veh, PANK3 / RFU, SH3YL1 / Fold change vs veh, SH3YL1 / RFU, ZEB2 / Fold change vs veh, ZEB2 / RFU, NRIP1 / Fold change vs veh, NRIP1 / RFU, PTTG1IP / Fold change vs veh, PTTG1IP / RFU, CAPN2 / Fold change vs veh, CAPN2 / RFU, MED14 / Fold change vs veh, MED14 / RFU, SNORA58 / Fold change vs veh, SNORA58 / RFU, C1orf63 / Fold change vs veh, C1orf63 / RFU, LRRFIP1 / Fold change vs veh, LRRFIP1 / RFU, NDUFAF7 / Fold change vs veh, NDUFAF7 / RFU, SLC12A2 / Fold change vs veh, SLC12A2 / RFU, IBTK / Fold change vs veh, IBTK / RFU, ESF1 / Fold change vs veh, ESF1 / Fold change vs veh, TMEM50B / RFU, TAOK1 / Fold change vs veh, TAOK1 / RFU, ACBD3 / Fold change vs veh, ACBD3 / RFU, TMA16 / Fold change vs veh, TMA16 / RFU, RWDD3 / Fold change vs veh, RWDD3 / RFU, BCAT1 / Fold change vs veh, BCAT1 / RFU, EDEM3 / Fold change vs veh, EDEM3 / RFU, TMEM33 / Fold change vs veh, TMEM33 / RFU, WDR75 / Fold change vs veh, WDR75 / RFU, AHCTF1 / Fold change vs veh, AHCTF1 / RFU, TFRC / Fold change vs veh, TFRC / RFU, ZDHHC17 / Fold change vs veh, ZDHHC17 / RFU, NOM1 / Fold change vs veh, NOM1 / RFU, ARL8B / Fold change vs veh, ARL8B / RFU, ZBTB11 / Fold change vs veh, ZBTB11 / RFU, TAMM41 / Fold change vs veh, TAMM41 / RFU, KIAA1704 /// LOC100996395 / Fold change vs veh, KIAA1704 /// LOC100996395 / RFU, ING1 / Fold change vs veh, ING1 / RFU, TRMT61B / Fold change vs veh, TRMT61B / RFU, FUBP3 / Fold change vs veh, FUBP3 / RFU, TP53 / Fold change vs veh, TP53 / RFU, TNKS2 / Fold change vs veh, TNKS2 / RFU, ZFP14 / Fold change vs veh, ZFP14 / RFU, ACTR2 / Fold change vs veh, ACTR2 / RFU, PPP3R1 / Fold change vs veh, PPP3R1 / RFU, PIK3R1 / Fold change vs veh, PIK3R1 / RFU, HNRNPA1 / Fold change vs veh, HNRNPA1 / RFU, RNF170 / Fold change vs veh, RNF170 / RFU, ZNF28 / Fold change vs veh, ZNF28 / RFU, RNGTT / Fold change vs veh, RNGTT / RFU, OGT / Fold change vs veh, OGT / RFU, BRD1 / Fold change vs veh, BRD1 / RFU, MARS / Fold change vs veh, MARS / RFU, ZNF655 / Fold change vs veh, ZNF655 / RFU, FAHD1 / Fold change vs veh, FAHD1 / RFU, BDP1 / Fold change vs veh, BDP1 / RFU, LRRCC1 / Fold change vs veh, LRRCC1 / RFU, ARID1A / Fold change vs veh, ARID1A / RFU, ZNF146 / Fold change vs veh, ZNF146 / RFU, ZNF330 / Fold change vs veh, ZNF330 / RFU, GPN3 / Fold change vs veh, GPN3 / RFU, C9orf123 / Fold change vs veh, C9orf123 / RFU, N4BP2L2 / Fold change vs veh, N4BP2L2 / RFU, ARFIP1 / Fold change vs veh, ARFIP1 / RFU, FAM179B / Fold change vs veh, FAM179B / RFU, BCL10 / Fold change vs veh, BCL10 / RFU, UHRF1BP1L / Fold change vs veh, UHRF1BP1L / RFU, BET1 / Fold change vs veh, BET1 / RFU, CNOT2 / Fold change vs veh, CNOT2 / RFU, ZNF268 / Fold change vs veh, ZNF268 / Fold change vs veh, ZNF507 / RFU, DGCR2 / Fold change vs veh, DGCR2 / RFU, WDSUB1 / Fold change vs veh, WDSUB1 / Fold change vs veh, HSP90B1 /// MIR3652 / RFU, ADSS / Fold change vs veh, ADSS / RFU, GK / Fold change vs veh, GK / RFU, ZNF148 / Fold change vs veh, ZNF148 / RFU, TAF9 / Fold change vs veh, TAF9 / RFU, SLC1A5 / Fold change vs veh, SLC1A5 / RFU, SLMO2 / Fold change vs veh, SLMO2 / RFU, ABCC4 / Fold change vs veh, ABCC4 / RFU, LOC101060439 /// RAP1B / Fold change vs veh, LOC101060439 /// RAP1B / RFU, RFX7 / Fold change vs veh, RFX7 / RFU, GTPBP10 / Fold change vs veh, GTPBP10 / RFU, CNEP1R1 / Fold change vs veh, CNEP1R1 / RFU, BIVM-ERCC5 /// ERCC5 / Fold change vs veh, BIVM-ERCC5 /// ERCC5 / RFU, ILF3 / Fold change vs veh, ILF3 / RFU 11762660_at / Fold change /veh 11762660_at / RFU VCAN (11757783_s_at) / Fold change /veh VCAN (11757783_s_at) / RFU DDX43 (11728927_at) / Fold change /veh DDX43 (11728927_at) / RFU KRT8 (11758188_x_at) / Fold change /veh KRT8 (11758188_x_at) / RFU NKD1 (11759106_at) / Fold change /veh NKD1 (11759106_at) / RFU SRD5A1 (11742802_a_at) / Fold change /veh SRD5A1 (11742802_a_at) / RFU TPSAB1 /// TPSB2 (11721975_s_at) / Fold change /veh TPSAB1 /// TPSB2 (11721975_s_at) / RFU GSTM3 (11746129_a_at) / Fold change /veh GSTM3 (11746129_a_at) / RFU IL23R (11737362_x_at) / Fold change /veh IL23R (11737362_x_at) / RFU TMEM51 (11727254_a_at) / Fold change /veh TMEM51 (11727254_a_at) / RFU PIWIL2 (11732686_x_at) / Fold change /veh PIWIL2 (11732686_x_at) / RFU ORM1 (11744905_x_at) / Fold change /veh ORM1 (11744905_x_at) / RFU CCDC152 (11743942_at) / Fold change /veh CCDC152 (11743942_at) / RFU ECM1 (11717891_a_at) / Fold change /veh ECM1 (11717891_a_at) / RFU IL23R (11748794_a_at) / Fold change /veh IL23R (11748794_a_at) / RFU TNFAIP8L3 (11732012_x_at) / Fold change /veh TNFAIP8L3 (11732012_x_at) / RFU MBOAT4 (11741988_at) / Fold change /veh MBOAT4 (11741988_at) / RFU 11764193_at / Fold change /veh 11764193_at / RFU TMEM53 (11763286_at) / Fold change /veh TMEM53 (11763286_at) / RFU MAGEB2 (11727129_at) / Fold change /veh MAGEB2 (11727129_at) / RFU TMEM200A (11744735_a_at) / Fold change /veh TMEM200A (11744735_a_at) / RFU CCDC152 (11751479_a_at) / Fold change /veh CCDC152 (11751479_a_at) / RFU FAM211A (11726209_a_at) / Fold change /veh FAM211A (11726209_a_at) / RFU RGS16 (11746705_a_at) / Fold change /veh RGS16 (11746705_a_at) / RFU VCAN (11755009_s_at) / Fold change /veh VCAN (11755009_s_at) / RFU RHOB (11743442_s_at) / Fold change /veh RHOB (11743442_s_at) / RFU RGS16 (11720943_a_at) / Fold change /veh RGS16 (11720943_a_at) / RFU RGS16 (11720944_at) / Fold change /veh RGS16 (11720944_at) / RFU, VPS4B / Fold change vs veh, VPS4B / RFU, CREB1 / Fold change vs veh, CREB1 / RFU, DNAJC13 / Fold change vs veh, DNAJC13 / RFU, GNAQ / Fold change vs veh, GNAQ / RFU, CDK5R1 / Fold change vs veh, CDK5R1 / RFU, ZRANB3 / Fold change vs veh, ZRANB3 / RFU, CUL4A / Fold change vs veh, CUL4A / RFU, CCNY / Fold change vs veh, CCNY / RFU, UFL1 / Fold change vs veh, UFL1 / RFU, COG3 / Fold change vs veh, COG3 / RFU, DIAPH2 / Fold change vs veh, DIAPH2 / RFU, SKA2 / Fold change vs veh, SKA2 / RFU, AFF3 / Fold change vs veh, AFF3 / RFU, LMF1 / Fold change vs veh, LMF1 / RFU, IPO11 / Fold change vs veh, IPO11 / RFU, DFFB / Fold change vs veh, DFFB / RFU, FOXP1 / Fold change vs veh, FOXP1 / RFU, CARD8 / Fold change vs veh, CARD8 / RFU, STRN3 / Fold change vs veh, STRN3 / RFU, ADK / Fold change vs veh, ADK / RFU, RASSF2 / Fold change vs veh, RASSF2 / RFU, WIPF1 / Fold change vs veh, WIPF1 / RFU, LARP1B / Fold change vs veh, LARP1B / RFU, RASA1 / Fold change vs veh, RASA1 / RFU, RB1 / Fold change vs veh, RB1 / RFU, PPFIA1 / Fold change vs veh, PPFIA1 / RFU, MAT2A / Fold change vs veh, MAT2A / RFU, CCT5 / Fold change vs veh, CCT5 / RFU, WDR92 / Fold change vs veh, WDR92 / RFU, CUX1 / Fold change vs veh, CUX1 / RFU, TTC7A / Fold change vs veh, TTC7A / RFU, TMEM135 / Fold change vs veh, TMEM135 / RFU, DEPTOR / Fold change vs veh, DEPTOR / RFU, CPM / Fold change vs veh, CPM / RFU, DNAJB6 / Fold change vs veh, DNAJB6 / RFU, CACNA2D3 / Fold change vs veh, CACNA2D3 / RFU, DTX4 / Fold change vs veh, DTX4 / RFU, TFCP2 / Fold change vs veh, TFCP2 / RFU, GMCL1 /// GMCL1P1 / Fold change vs veh, GMCL1 /// GMCL1P1 / RFU, AEBP2 / Fold change vs veh, AEBP2 / RFU, SNHG1 /// SNORD22 /// SNORD25 /// SNORD26 /// SNORD27 /// SNORD28 /// SNORD29 /// SNORD31 / Fold change vs veh, SNHG1 /// SNORD22 /// SNORD25 /// SNORD26 /// SNORD27 /// SNORD28 /// SNORD29 /// SNORD31 / Fold change (Aza/veh), C12orf56 (ProbeSet 11735607_a_at) / Fold change (ACY-1035/veh), C12orf56 (ProbeSet 11735607_a_at) / Fold change (Aza/veh), FGFR1OP (ProbeSet 11751329_s_at) / Fold change (ACY-1035/veh), FGFR1OP (ProbeSet 11751329_s_at) / Fold change (Aza/veh), VPS36 (ProbeSet 11739960_a_at) / Fold change (ACY-1035/veh), VPS36 (ProbeSet 11739960_a_at) / RFU SYPL1 (11715823_x_at) / Fold change /veh SYPL1 (11715823_x_at) / RFU IGFBP7 (11715501_s_at) / Fold change /veh IGFBP7 (11715501_s_at) / RFU REEP3 (11722064_at) / Fold change /veh REEP3 (11722064_at) / RFU IGLL1 (11728026_x_at) / Fold change /veh IGLL1 (11728026_x_at): dose or concentration left out as unconfirmed
Conditions: MV-4-11 cells, 48 hours

Nc1ncn([C@@H]2O[C@H](CO)[C@@H](O)[C@H]2O)c(=O)n1 [azacitidine]
Fold change /veh SPTSSB (11747773_x_at): 1.09
